Reference: US10920265B2, “Compounds and methods for detection of enzymes that remove methyl succinyl groups from epsilon-amino lysine moieties” (Enzo Life Sciences, Inc., priority 2011, dated 2021)
*: point of attachment. AMC = Cc1cc(=O)oc2cc(N*)ccc12

Columns and labels:
Experiment in all cases: HDAC activity with fluorogenic lysyl substrates
Format in all cases: biochemical
Conditions in all cases: 50 μM substrate
[1] = molecular target: T1, HDAC1 (Homo sapiens, UniProt Q13547)
T1 construct: purchased ENZO Life Sciences BML-SE456
T1 sequence (Q13547 whole entry): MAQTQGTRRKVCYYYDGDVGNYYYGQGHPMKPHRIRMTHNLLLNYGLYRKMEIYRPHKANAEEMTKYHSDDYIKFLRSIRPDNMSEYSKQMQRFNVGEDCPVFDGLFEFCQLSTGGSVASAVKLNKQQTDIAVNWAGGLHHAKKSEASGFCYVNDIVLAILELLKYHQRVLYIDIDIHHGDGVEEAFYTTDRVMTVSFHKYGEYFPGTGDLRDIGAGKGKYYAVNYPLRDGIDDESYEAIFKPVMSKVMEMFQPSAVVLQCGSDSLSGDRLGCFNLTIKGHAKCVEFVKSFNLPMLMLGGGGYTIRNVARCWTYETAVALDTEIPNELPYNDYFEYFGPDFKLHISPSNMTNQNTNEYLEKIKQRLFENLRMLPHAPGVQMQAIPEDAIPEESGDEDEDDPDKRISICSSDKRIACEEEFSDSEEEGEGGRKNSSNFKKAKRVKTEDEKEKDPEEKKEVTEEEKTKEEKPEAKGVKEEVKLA
Protocol: (§1) The Ac-Lys(Succ.)-AMC substrate was tested for activity with recombinant preparations of human HDACs 1-11, SIRTs 1-4, 6 and 7, a complex of HDAC3 with a fragment of the activating protein NCOR1 and with HeLa nuclear extract, a rich source of active HDACs in their native multiprotein complexes.
(§2) Enzyme and extract catalog products obtained from ENZO Life Sciences included: HDAC1 (Cat. # BML-SE456), HDAC2 (Cat. # BML-SE500), HDAC3 (Cat. # BML-SE507), HDAC3/NCOR1 Complex (Cat. # BML-SE515), HDAC6 (Cat. # BML-SE508), HDAC8 (Cat. # BML-SE145), HDAC10 (Cat. # BML-SE559), HDAC11 (Cat. # BML-SE560), SIRT1 (Cat. # BML-SE239), SIRT2 (Cat. # BML-SE251), SIRT3 (Cat. # BML-SE270), SIRT5 (Cat. # BML-SE555), HeLa Nuclear Extract (Cat. # BML-KI140), Trypsin (“Fluor de Lys Developer”, 80 mg/ml bovine trypsin in 1 mM HCl, Cat. # BML-KI105 or “Fluor de Lys Developer II”, 80 mg/ml bovine trypsin in 1 mM HCl, Cat. # BML-KI176). […] Enzymes obtained from BPS Bioscience, San Diego, Calif. included: human recombinants SIRT4 (Cat. #50015), SIRT6 (Cat. #50017), SIRT7 (Cat. #50018). HeLa whole cell extract was obtained from HeLa S3 cells (American Type Culture Collection) grown in a medium of MEM/10% fetal bovine serum (FBS) as follows: 1) 9×10^6 cells were suspended by trypsinization, followed by a phosphate buffered saline (PBS) rinse and addition of MEM/10% FBS (1.5 mL) to eliminate trypsin before transfer to a 15 mL conical tube; 2) cells were sedimented by a low speed centrifugation, gently resuspended in PBS and sedimented again and supernatant removed; 3) lysis was induced by resuspension in 0.8 mL 50 mM Tris/HCl, pH 8.0 with the non-denaturing detergent NP-40 (0.5%), placement on ice and brief vortexing every 5 min. for 30 min.; 4) 100 μl of a concentrated salt solution in the same buffer was added in order to bring the final buffer composition to 50 mM Tris/C1, pH 8.0, 137 mM NaCl, 2.7 mM KCl, 1 mM MgCl2, 0.5% NP-40; 5) particulate matter was cleared by centrifugation and the cleared lysate supernatant transferred to a 1.5 mL Eppendorf tube and stored on ice until use in activity assays.
(§3) Assays were performed at 37° C., according to the manufacturer's instructions for the “SIRT1 Fluorometric Drug Discovery Kit” from Enzo Life Sciences (ELS) (Cat. # BML-AK555), with exceptions described as follows. Where indicated in figures and text, SIRT1 enzyme was replaced with another enzyme or extract and the “Fluor de Lys-SIRT1 Substrate” (Ac-Arg-His-Lys-Lys(Ac)-AMC; ELS Cat. # BML-KI-177) was replaced with another acetylated, succinylated or trifluoroacetylated substrate.

[2] = molecular target: T2, HDAC10 (Homo sapiens, UniProt Q969S8)
T2 construct: purchased ENZO Life Sciences BML-SE559
T2 sequence (Q969S8 1-669): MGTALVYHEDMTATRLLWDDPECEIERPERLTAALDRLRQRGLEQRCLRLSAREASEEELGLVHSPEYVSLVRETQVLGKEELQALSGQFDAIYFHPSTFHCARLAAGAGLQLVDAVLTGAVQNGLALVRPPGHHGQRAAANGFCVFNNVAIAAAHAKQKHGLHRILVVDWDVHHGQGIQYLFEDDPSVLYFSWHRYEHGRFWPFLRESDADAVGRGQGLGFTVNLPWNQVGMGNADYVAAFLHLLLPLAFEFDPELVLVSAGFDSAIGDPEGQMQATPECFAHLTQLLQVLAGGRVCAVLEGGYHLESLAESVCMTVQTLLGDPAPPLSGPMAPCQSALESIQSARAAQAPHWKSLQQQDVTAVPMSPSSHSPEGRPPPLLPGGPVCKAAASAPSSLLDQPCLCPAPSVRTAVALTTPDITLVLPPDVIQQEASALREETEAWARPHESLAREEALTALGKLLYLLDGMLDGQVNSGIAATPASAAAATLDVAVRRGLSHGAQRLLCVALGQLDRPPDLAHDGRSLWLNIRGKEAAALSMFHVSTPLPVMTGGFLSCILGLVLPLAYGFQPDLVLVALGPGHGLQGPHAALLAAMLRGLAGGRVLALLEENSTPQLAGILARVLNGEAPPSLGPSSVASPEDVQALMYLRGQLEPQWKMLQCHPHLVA
Protocol: as §1, §2, §3

[3] = molecular target: T3, HDAC2 (Homo sapiens, UniProt Q92769)
T3 construct: purchased ENZO Life Sciences BML-SE500
T3 sequence (Q92769 whole entry): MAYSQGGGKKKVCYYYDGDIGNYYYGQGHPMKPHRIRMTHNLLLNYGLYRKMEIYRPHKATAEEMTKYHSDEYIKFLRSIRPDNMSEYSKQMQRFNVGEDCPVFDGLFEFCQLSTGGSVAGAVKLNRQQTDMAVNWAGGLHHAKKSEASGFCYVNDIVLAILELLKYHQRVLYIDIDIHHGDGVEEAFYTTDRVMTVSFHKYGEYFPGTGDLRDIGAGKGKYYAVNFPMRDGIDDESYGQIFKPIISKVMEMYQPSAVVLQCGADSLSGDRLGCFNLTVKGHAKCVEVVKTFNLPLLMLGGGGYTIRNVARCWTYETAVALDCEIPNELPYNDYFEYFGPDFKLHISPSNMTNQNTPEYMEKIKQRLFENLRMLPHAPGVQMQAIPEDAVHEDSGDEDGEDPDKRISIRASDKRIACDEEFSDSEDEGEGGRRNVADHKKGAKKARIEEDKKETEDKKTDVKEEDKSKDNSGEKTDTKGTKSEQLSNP
Protocol: as §1, §2, §3

[4] = molecular target: T4, HDAC8 (Homo sapiens, UniProt Q9BY41)
T4 construct: purchased ENZO Life Sciences BML-SE145
T4 sequence (Q9BY41 1-377): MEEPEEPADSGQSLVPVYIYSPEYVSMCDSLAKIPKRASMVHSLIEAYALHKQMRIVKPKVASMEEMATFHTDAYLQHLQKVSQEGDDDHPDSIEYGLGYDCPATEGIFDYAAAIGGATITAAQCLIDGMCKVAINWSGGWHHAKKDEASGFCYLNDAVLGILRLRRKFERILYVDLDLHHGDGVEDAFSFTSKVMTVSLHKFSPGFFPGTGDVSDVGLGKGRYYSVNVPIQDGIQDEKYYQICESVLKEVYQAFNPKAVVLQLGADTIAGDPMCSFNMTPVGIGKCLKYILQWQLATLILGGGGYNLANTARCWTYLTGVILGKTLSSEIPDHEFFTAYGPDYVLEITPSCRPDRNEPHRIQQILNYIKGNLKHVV
Protocol: as §1, §2, §3

[5] = molecular target: T5, HDAC9 (Homo sapiens, UniProt Q9UKV0)
T5 construct: made in house; host or cells: E. coli
T5 sequence (Q9UKV0 644-1066 isoform Q9UKV0-5): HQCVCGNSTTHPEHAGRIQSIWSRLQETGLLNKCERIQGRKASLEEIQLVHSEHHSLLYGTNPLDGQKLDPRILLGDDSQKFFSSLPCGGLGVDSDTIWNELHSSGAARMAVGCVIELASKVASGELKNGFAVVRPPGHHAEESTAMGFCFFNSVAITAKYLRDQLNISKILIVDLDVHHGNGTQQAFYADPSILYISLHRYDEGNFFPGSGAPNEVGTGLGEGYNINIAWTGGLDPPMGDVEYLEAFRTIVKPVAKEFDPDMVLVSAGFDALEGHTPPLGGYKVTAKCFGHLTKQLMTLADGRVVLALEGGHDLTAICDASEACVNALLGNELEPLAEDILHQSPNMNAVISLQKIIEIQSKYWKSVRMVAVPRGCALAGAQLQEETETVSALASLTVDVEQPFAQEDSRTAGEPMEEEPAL
Protocol: as §1, §2, §3

| Compound | Activity [1] [pmol/min/µg] | Activity [2] [pmol/min/µg] | Activity [3] [pmol/min/µg] | Activity [4] [pmol/min/µg] | Activity [5] [pmol/min/µg] | Activity (pmol/min/μg) [1] | Activity (pmol/min/μg) [2] | Activity (pmol/min/μg) [4] | Activity (pmol/min/μg) [5] |
| --- | --- | --- | --- | --- | --- | --- | --- | --- | --- |
| CC(=O)NCCCCC(NC(C)=O)C(=O)Nc1ccc2c(C)cc(=O)oc2c1 (centres unmarked) [Ac-Lys(Ac.)-AMC, Ac-Lys(ε-acetyl)-AMC, reference compound] | 14.8 | 1.21 | 554 | 0.091 | 0.027 |  |  |  |  |
| COC(=O)CCC(=O)NCCCC[C@H](NC(C)=O)C(=O)Nc1ccc2c(C)cc(=O)oc2c1 [Compound 5, N—(N^α-acetyl-L-Lysine(N^ε-methyl succinyl))-AMC] | 0.798 |  | 31.330 | 0.003 | 0.135 |  |  |  |  |
| Ac-Arg-His-Lys-Lys(ε-acetyl)-AMC (Ac-RHKK(Ac)-{AMC}; SMILES CC(=O)NCCCC[C@H](NC(=O)[C@H](CCCCN)NC(=O)[C@H](Cc1c[nH]cn1)NC(=O)[C@H](CCCNC(=N)N)NC(C)=O)C(=O)Nc1ccc2c(C)cc(=O)oc2c1) [Ac-RHKK(Ac)-AMC, p53 peptide fluorogenic deacetylase substrate, Cat. # BML-KI177, reference compound] |  |  |  |  |  | Ac-RHKK(Ac)-AMC/21 pmol/min/μg | Ac-RHKK(Ac)-AMC/2.72 pmol/min/μg |  |  |
| CCCCCCCCCCCCCC(=O)NCCCC[C@H](NC(C)=O)C(=O)Nc1ccc2c(C)cc(=O)oc2c1 [Compound 4, N—(N^α-acetyl-L-Lysine(N^ε-myristoyl))-AMC] | 1.651 |  | 83.05 |  |  |  |  | Undetectable | Undetectable |
| CC(=O)N[C@@H](CCCCNC(=O)CCC(=O)O)C(=O)Nc1ccc2c(C)cc(=O)oc2c1 [Compound 1, N—(N^α-acetyl-L-Lysine(N^ε-succinyl))-AMC] |  |  | 0.28 |  |  | Undetectable | Undetectable | Undetectable | Undetectable |
